Calls of active or inactive are those of the source. The rule behind the calls is not given here.
Experiments:
[1] = Stabilization of ssGQPLEX-G/T-1,2,3,4 DNA by circular dichroism method
[2] = Binding affinity to ssGQPLEX DNA (unknown origin) assessed as dissociation constant by isothermal titration calorimetric method
A549 [3] = assay: Inhibition of Nuclear factor erythroid 2-related factor 2 5'-untranslated region guanine-rich DNA sequence in human A549 cells assessed as reduction in NRF2 mRNA levels at 10 nM after 12 to 36 hrs by RT-PCR analysis; format: cell-based
A549 [4] = assay: Inhibition of Nrf2 5'-untranslated region guanine-rich DNA sequence in human A549 cells assessed as potentiation of etoposide-induced cytotoxicity by measuring increase in apoptosis at 10 nM after 24 hrs by TUNEL assay; format: cell-based
A549 [5] = assay: Inhibition of Nuclear factor erythroid 2-related factor 2 5'-untranslated region guanine-rich DNA sequence in human A549 cells assessed as suppression of AKR1C3 gene expression at 10 nM measured up to 48 hrs by RT-PCR analysis; format: cell-based
[6] = Stabilization of ssGQPLEX-delta1,2 DNA lacking first and second G blocks (unknown origin) by circular dichroism method
[7] = Stabilization of ssGQPLEX-G/T-1,3 DNA (unknown origin) by circular dichroism method
A549 [8] = assay: Inhibition of Nrf2 5'-untranslated region guanine-rich DNA sequence in human A549 cells assessed as potentiation of etoposide-induced cytotoxicity by measuring decrease in cell viability at 10 nM after 24 hrs by MTT assay; format: cell-based
[9] = Stabilization of ssGQPLEX-G/T-2,4 DNA (unknown origin) by circular dichroism method
[10] = Stabilization of dsGQPLEX DNA (unknown origin) by circular dichroism method
[11] = Stabilization of ssGQPLEX DNA (unknown origin) assessed as increase in the peak of 264 nm wavelength by circular dichroism method
[12] = Stabilization of ssGQPLEX-delta3,4 DNA lacking third and fourth G blocks (unknown origin) by circular dichroism method
A549 [13] = assay: Inhibition of Nuclear factor erythroid 2-related factor 2 5'-untranslated region guanine-rich DNA sequence in human A549 cells assessed as suppression of AKR1B10 gene expression at 10 nM measured up to 48 hrs by RT-PCR analysis; format: cell-based
A549 [14] = assay: Cytotoxicity against human A549 cells at 1 nM to 10 uM after 24 hrs by MTT assay; format: cell-based; details: a549, 24 h, 0.001 µM
A549 [15] = assay: Inhibition of Nrf2 5'-untranslated region guanine-rich DNA sequence in human A549 cells assessed as potentiation of etoposide-induced cytotoxicity by measuring increase in ROS production at 10 nM after 24 hrs by DCFH-DA based assay; format: cell-based
A549 [16] = assay: Inhibition of Nrf2 5'-untranslated region guanine-rich DNA sequence in human A549 cells assessed as potentiation of etoposide-induced apoptosis by measuring increase cleaved PARP protein level in at 10 nM after 24 hrs by Western blot analysis; format: cell-based
A549 [17] = assay: Inhibition of Nuclear factor erythroid 2-related factor 2 5'-untranslated region guanine-rich DNA sequence in human A549 cells assessed as suppression of GCLC gene expression at 10 nM measured up to 48 hrs by RT-PCR analysis; format: cell-based
A549 [18] = assay: Inhibition of Nuclear factor erythroid 2-related factor 2 5'-untranslated region guanine-rich DNA sequence in human A549 cells assessed as reduction in Nrf2 protein level at 10 nM incubated for 12 to […] hrs by Western blot analysis; format: cell-based
A549 [19] = assay: Inhibition of Nrf2 5'-untranslated region guanine-rich DNA sequence in human A549 cells assessed as potentiation of etoposide-induced apoptosis by measuring increase cleaved caspase-3 protein level in at 10 nM after 24 hrs by Western blot analysis; format: cell-based

COC(=O)C[C@](O)(CCCC(C)(C)O)C(=O)O[C@@H]1C(OC)=C[C@]23CCCN2CCc2cc4c(cc2[C@H]13)OCO4 [OMACETAXINE MEPESUCCINATE]
Activity [1]: inactive
Kd [2]: 17 µM
inhibition (A549 [3]): Active
inhibition (A549 [4]): Active
inhibition (A549 [5]): Active
Activity [6]: inactive
Activity [7]: inactive
inhibition (A549 [8]): Active
Activity [9]: inactive
Activity [10]: inactive
Activity [11]: Active
Activity [12]: inactive
inhibition (A549 [13]): Active
Activity (A549 [14]): Non-Toxic
inhibition (A549 [15]): Active
inhibition (A549 [16]): Active
inhibition (A549 [17]): Active
inhibition (A549 [18]): Active
inhibition (A549 [19]): Active

From ChEMBL document CHEMBL4433256, “Homoharringtonine stabilizes secondary structure of guanine-rich sequence existing in the 5'-untranslated region of Nrf2” (Bioorg Med Chem Lett, 2019)
